Counter-ions that a name gives are not always drawn.
Key:
[1] = molecular target: T1, human recombinant GABAAR containing α5β3γ2 subunits (benzodiazepine site) (Homo sapiens, UniProt P18507+P31644); assay: In vitro radioligand binding assay (α5-GABAAR Ki); settings: inhibition of [3H]Ro15-1788 binding, membranes of L(tk−) cells expressing human α5β3γ2; read-out: α5-GABAAR Ki
T1 construct: expressed in transfected cells; host or cells: mouse L(tk−) cells, dexamethasone-inducible vector pMSGneo
Summary of the method: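 Membranes from mouse L(tk^−) cells stably expressing human α5β3γ2 GABAAR incubated 1 h at 4° C with 4 nM [^3H]Ro15-1788 and test compound; nonspecific binding with 1 μM TP003. Filter-bound radioactivity counted; Ki from IC50 by Cheng-Prusoff using measured Kd.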

[2] = molecular target: T2, human α5β3γ2 GABAARs in mouse L(tk−) cells (Homo sapiens, UniProt P18507+P31644); assay: In vitro electrophysiological recording assay (α5-GABAAR relative efficacy), QPatch; type: cell-based; settings: GABA EC10-20
T2 construct: expressed in transfected cells; host or cells: mouse L(tk−) cells, dexamethasone-inducible vector pMSGneo
T2 sequence (P31644 32-462): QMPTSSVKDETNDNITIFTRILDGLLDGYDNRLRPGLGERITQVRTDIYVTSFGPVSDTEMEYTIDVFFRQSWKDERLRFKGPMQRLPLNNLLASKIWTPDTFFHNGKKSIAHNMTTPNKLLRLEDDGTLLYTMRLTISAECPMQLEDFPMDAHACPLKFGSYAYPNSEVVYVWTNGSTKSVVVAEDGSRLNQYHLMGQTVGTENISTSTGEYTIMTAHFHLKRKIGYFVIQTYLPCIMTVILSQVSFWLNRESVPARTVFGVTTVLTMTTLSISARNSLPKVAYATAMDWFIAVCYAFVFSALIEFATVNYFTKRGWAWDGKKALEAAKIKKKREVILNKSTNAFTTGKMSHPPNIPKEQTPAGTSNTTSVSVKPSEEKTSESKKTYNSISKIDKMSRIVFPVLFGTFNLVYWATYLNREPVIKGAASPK
T2 sequence (P28472 26-473 partner): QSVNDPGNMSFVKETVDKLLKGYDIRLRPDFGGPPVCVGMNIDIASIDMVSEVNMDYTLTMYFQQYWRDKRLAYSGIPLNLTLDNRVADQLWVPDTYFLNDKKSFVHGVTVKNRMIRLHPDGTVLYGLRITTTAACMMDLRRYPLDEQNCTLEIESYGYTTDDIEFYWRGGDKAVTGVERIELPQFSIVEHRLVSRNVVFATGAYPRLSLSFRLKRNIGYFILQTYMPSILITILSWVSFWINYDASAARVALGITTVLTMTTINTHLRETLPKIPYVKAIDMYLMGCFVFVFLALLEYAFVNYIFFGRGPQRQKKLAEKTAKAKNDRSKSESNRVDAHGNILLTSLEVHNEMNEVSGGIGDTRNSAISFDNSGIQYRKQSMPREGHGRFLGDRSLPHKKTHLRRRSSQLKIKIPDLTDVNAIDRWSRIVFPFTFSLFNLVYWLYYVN
T2 sequence (P18507 40-475): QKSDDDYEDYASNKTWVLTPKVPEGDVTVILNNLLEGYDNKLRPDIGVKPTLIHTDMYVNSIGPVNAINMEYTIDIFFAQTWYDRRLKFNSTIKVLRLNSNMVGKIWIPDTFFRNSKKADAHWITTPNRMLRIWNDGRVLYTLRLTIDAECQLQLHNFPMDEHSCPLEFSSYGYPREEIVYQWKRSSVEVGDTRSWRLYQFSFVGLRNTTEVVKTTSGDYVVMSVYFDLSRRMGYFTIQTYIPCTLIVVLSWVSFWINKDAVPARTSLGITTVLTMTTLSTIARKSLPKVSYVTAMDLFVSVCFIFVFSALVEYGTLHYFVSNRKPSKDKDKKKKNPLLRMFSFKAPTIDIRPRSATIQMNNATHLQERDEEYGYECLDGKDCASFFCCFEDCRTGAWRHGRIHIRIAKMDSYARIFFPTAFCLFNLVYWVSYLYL
Summary of the method: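 Whole-cell QPatch recordings at 20-22° C, −65 mV holding, in dexamethasone-induced (1 μM, 24 h) L(tk−) cells. Compound pre-applied ≥1 min, then co-applied with GABA EC10-20; percentage change in leak-corrected peak current, taken at ≥100× Ki, normalised to DMCM efficacy; 0.1% DMSO final.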

[3] = molecular target: T3, human α5β3γ2L GABAA receptors in HEK293 cells (Homo sapiens, UniProt P18507+P31644); assay: In vitro electrophysiological recording assay (α5-GABAAR relative efficacy), SyncroPatch; type: cell-based; settings: Conc 0.1 μM; GABA EC10-20
T3 construct: expressed in transfected cells
T3 sequence (P31644 32-462): as the sequence (P31644 32-462) above
T3 sequence (P28472 26-473 partner): as the sequence (P28472 26-473 partner) above
T3 sequence (P18507 40-475): as the sequence (P18507 40-475) above
Summary of the method: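 HEK293 cells stably expressing the receptor, automated whole-cell patch clamp at −80 mV, room temperature (20-22° C). Compound pre-incubated 1-2 min, then co-applied with GABA EC10-20; % change in peak current vs GABA alone (leak-subtracted). Tested generally at ≥100× Ki and normalised to DMCM efficacy as relative efficacy.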

[4] = system: mouse hippocampal brain slices (LTP suppressed by etomidate); assay: Electrophysiology in hippocampal slices - long term potentiation assay

T1 sequence (P31644 32-462): as the sequence (P31644 32-462) above
T1 sequence (P28472 26-473 partner): as the sequence (P28472 26-473 partner) above
T1 sequence (P18507 40-475): as the sequence (P18507 40-475) above

Structure (SMILES)	Ki [1] [pM]	α5-GABAAR Relative Efficacy (to DMCM), Qpatch ([2]; Conc 0.3 μM)	α5-GABAAR Relative Efficacy (to DMCM), SyncroPatch [3]	α5-GABAAR Relative Efficacy (to DMCM), Qpatch ([2]; Conc 0.1 μM)	magnitude of LTP (fEPSP slope as % of control fEPSPs prior to 4-TBS vs time) ([4]; etomidate 3 μM alone, n=17, FIG. 2A)	fEPSP slope at 50-60 min post-delivery of the 4-TBS ([4]; etomidate alone compared to control, FIG. 2B)
Cc1onc(-c2ccccc2)c1C(=O)Nc1ccc(-n2ccnc2)nc1OC(C)C [Example 206, N-(6-(1H-Imidazol-1-yl)-2-isopropoxypyridin-3-yl)-5-methyl-3-phenylisoxazole-4-carboxamide]	1700	−0.55	−1.03	–	–	–
Cc1onc(-c2ccccc2)c1C(=O)Nc1ccc(-c2cnc(CN)nc2)nc1OC(C)C [Example 207, N-(6-(2-(Aminomethyl)pyrimidin-5-yl)-2-isopropoxypyridin-3-yl)-5-methyl-3-phenylisoxazole-4-carboxamide hydrochloride]	300	–	−0.83	−0.56	–	–
Cc1onc(-c2ccc(F)cc2)c1C(=O)Nc1ccc(-c2cnc3n2CCNC3)nc1OC(C)C.Cl [Example 208, 3-(4-Fluorophenyl)-N-(2-isopropoxy-6-(5,6,7,8-tetrahydroimidazo[1,2-a]pyrazin-3-yl)pyridin-3-yl)-5-methylisoxazole-4-carboxamide hydrochloride]	700	–	−0.70	−0.38	–	–
CCOC(=O)c1cncn1[C@H](C)c1ccccc1 [etomidate, reference compound]	–	–	–	–	reduced	significantly reduced fEPSP slope

— patent US20240425491A1, “HETEROARYL COMPOUNDS USEFUL IN THE TREATMENT OF COGNITIVE DISORDERS” (University College Cardiff Consultants Limited, priority 2021, published 2024)
